Measurements from patent US7989464B2, “mGluR1 antagonists as therapeutic agents” (Schering Corporation, priority 2004, dated 2011).

The molecules below were run against T1, hmGluR1 receptor (Homo sapiens, UniProt Q13255) (assay: IC50 determination: intracellular calcium mobilization (FLIPR) upon Quisqualate stimulation in CHO cells stably expressing hmGluR1). Details: against Quisqualate 1 μM (EC80), FLIPR calcium mobilization, read-out: IC50 Class.
T1 construct: expressed in transfected cells
Format: cell-based
Summary of the method: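 CHO cells stably expressing hmGluR1 were kept overnight in DMEM high glucose with GPT and 1 mM pyruvate, then loaded 2 h with Calcium 3 dye.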

T1 sequence (Q13255 19-1194): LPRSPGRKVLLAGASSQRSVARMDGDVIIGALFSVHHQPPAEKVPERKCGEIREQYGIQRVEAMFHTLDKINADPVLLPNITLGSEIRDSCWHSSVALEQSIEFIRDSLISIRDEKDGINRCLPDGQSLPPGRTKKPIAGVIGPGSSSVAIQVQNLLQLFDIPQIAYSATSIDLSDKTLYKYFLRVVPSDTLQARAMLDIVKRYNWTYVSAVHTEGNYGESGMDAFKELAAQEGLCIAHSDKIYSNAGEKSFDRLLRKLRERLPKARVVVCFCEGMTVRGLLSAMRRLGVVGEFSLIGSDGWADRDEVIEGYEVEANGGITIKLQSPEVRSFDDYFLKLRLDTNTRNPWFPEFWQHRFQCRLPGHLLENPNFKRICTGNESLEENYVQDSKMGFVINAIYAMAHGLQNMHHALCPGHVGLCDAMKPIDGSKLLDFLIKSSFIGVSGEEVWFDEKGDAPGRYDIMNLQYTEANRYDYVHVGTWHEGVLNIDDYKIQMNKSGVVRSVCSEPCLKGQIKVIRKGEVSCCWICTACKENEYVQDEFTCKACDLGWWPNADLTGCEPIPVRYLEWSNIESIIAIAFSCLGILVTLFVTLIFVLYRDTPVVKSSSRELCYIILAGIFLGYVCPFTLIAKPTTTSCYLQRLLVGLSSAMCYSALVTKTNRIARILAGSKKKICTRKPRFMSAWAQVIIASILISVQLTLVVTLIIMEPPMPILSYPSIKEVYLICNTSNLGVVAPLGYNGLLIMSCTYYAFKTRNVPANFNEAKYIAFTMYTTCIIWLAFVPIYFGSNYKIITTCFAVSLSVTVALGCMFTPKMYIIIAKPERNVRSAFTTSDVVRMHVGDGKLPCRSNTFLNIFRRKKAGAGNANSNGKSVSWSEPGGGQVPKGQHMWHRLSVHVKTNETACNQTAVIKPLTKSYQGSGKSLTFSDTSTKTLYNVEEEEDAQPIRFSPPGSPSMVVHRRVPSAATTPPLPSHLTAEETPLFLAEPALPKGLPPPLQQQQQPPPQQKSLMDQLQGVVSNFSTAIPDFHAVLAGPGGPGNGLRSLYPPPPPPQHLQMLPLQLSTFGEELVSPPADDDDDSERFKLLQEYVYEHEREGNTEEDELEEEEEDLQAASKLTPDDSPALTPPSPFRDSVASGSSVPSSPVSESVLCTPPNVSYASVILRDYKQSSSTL

| IC50 | SMILES |
| --- | --- |
| > 1000 nM | CN(C)c1cccc2sc3c(=O)n(-c4ccccc4Cl)cnc3c12 [103G] |
| > 1000 nM | CN(C)c1cccc2sc3c(=O)n(-c4cccc(Cl)c4)cnc3c12 [103H] |
| > 1000 nM | CN(C)c1cccc2sc3c(=O)n(-c4cccc(Cl)c4Cl)cnc3c12 [103I] |
| > 1000 nM | CN(C)c1cccc2sc3c(=O)n(-c4ccc(Cl)c(Cl)c4)cnc3c12 [103J] |
| > 1000 nM | CN(C)c1cccc2sc3c(=O)n(-c4cc(Cl)cc(Cl)c4)cnc3c12 [103K] |
| > 1000 nM | CN(C)c1cccc2sc3c(=O)n(-c4ccccc4F)cnc3c12 [103L] |
| 150 to 1000 nM | CN(C)c1cccc2sc3c(=O)n(-c4cccc(F)c4)cnc3c12 [103M] |
| 150 to 1000 nM | CN(C)c1cccc2sc3c(=O)n(-c4ccc(F)cc4)cnc3c12 [103N] |
| > 1000 nM | CN(C)c1cccc2sc3c(=O)n(-c4cccc(F)c4F)cnc3c12 [103O] |
| 150 to 1000 nM | CN(C)c1cccc2sc3c(=O)n(-c4ccc(F)c(F)c4)cnc3c12 [103P] |
| 150 to 1000 nM | CN(C)c1cccc2sc3c(=O)n(-c4cc(F)cc(F)c4)cnc3c12 [103Q] |
| 150 to 1000 nM | CNc1cccc2sc3c(=O)n(-c4ccc(Cl)cc4)cnc3c12 [103R] |
| 150 to 1000 nM | COc1cccc2sc3c(=O)n(-c4ccc(Cl)cc4)cnc3c12 [103S] |
| 50 to 150 nM | COc1ccc(-n2cnc3c(sc4nccc(NC5CC5)c43)c2=O)c(F)c1 [131H] |
| 50 to 150 nM | COc1ccc(-n2cnc3c(sc4nccc(NC5CC5)c43)c2=O)c(C)c1 [131I] |
| < 50 nM | O=c1c2sc3nccc(NC4CC4)c3c2ncn1-c1ccc2scnc2c1 [131J] |
| > 1000 nM | COc1ccc(-n2cnc3c(sc4nccc(NC5CC5)c43)c2=O)cc1Cl [131K] |
| < 50 nM | Cc1ccc(-n2cnc3c(sc4nccc(NC5CC5)c43)c2=O)cc1F [131L] |
| 50 to 150 nM | Cc1ccc(-n2cnc3c(sc4nccc(NC5CC5)c43)c2=O)c(F)c1 [131M] |
| 150 to 1000 nM | COc1cc(-n2cnc3c(sc4nccc(NC5CC5)c43)c2=O)ccc1F [131N] |
| 50 to 150 nM | O=c1c2sc3ncnc(NC4CC4)c3c2ncn1-c1ccc(C2CC2)cc1 [137C] |
| < 50 nM | CN(C)c1ncnc2sc3c(=O)n(-c4ccc(C5CC5)cc4)cnc3c12 [137D] |
| < 50 nM | CNc1c(C2CC2)cnc2sc3c(=O)n(-c4ccc(OC)cc4)cnc3c12 [137E] |

| IC50 | SMILES |
| --- | --- |
| 50 to 150 nM | CN(C)c1ccnc2sc3c(=O)n(-c4ccc(C5CC5)cc4F)cnc3c12 [137F] |
| < 50 nM | CN(C)c1ccnc2sc3c(=O)n(-c4ccc(C5CC5)c(F)c4)cnc3c12 [137G] |
| > 1000 nM | COc1ccnc2sc3c(=O)n(-c4ccc(C5CC5)cc4)cnc3c12 [137H] |
| 150 to 1000 nM | O=c1c2sc3nccc(NC4CC4)c3c2ncn1-c1ccc(C2CC2)cc1 [137I] |
| > 1000 nM | CCOC(=O)c1cnc2sc3c(=O)n(-c4ccc(OC)cc4)cnc3c2c1 [144B] |
| > 1000 nM | CCOC(=O)c1cc2c(nc1C(F)(F)F)sc1c(=O)n(-c3ccc(C)cc3)cnc12 [144C] |
| > 1000 nM | CCOc1cnnc2sc3c(=O)n(-c4ccc(C)cc4)cnc3c12 [161A] |
| > 1000 nM | COc1ccnc2sc3c(=O)n(-c4ccc5c(c4)OCCO5)cnc3c12 [161B] |
| > 1000 nM | COc1ccnc2sc3c(=O)n(-c4ccncc4)cnc3c12 [161C] |
| 150 to 1000 nM | Cc1ccc(-n2cnc3c(sc4cnnc(NC5CC5)c43)c2=O)cc1 [167A] |
| 50 to 150 nM | Cc1ccc(-n2cnc3c(sc4cnnc(N(C)C)c43)c2=O)cc1 [167B] |
| 150 to 1000 nM | C=CCNc1nncc2sc3c(=O)n(-c4ccc(C)cc4)cnc3c12 [167C] |
| > 1000 nM | COCCNc1nncc2sc3c(=O)n(-c4ccc(C)cc4)cnc3c12 [167D] |
| > 1000 nM | C#CCOc1nncc2sc3c(=O)n(-c4ccc(C)cc4)cnc3c12 [167E] |
| > 1000 nM | Cc1ccc(-n2cnc3c(sc4cnnc(NCCCO)c43)c2=O)cc1 [167F] |
| > 1000 nM | Cc1ccc(-n2cnc3c(sc4cnnc(NCC(F)(F)F)c43)c2=O)cc1 [167G] |
| 150 to 1000 nM | CNc1nncc2sc3c(=O)n(-c4ccc(C)cc4)cnc3c12 [167H] |
| 150 to 1000 nM | CCNc1nncc2sc3c(=O)n(-c4ccc(C)cc4)cnc3c12 [167I] |
| 50 to 150 nM | C#CCNc1nncc2sc3c(=O)n(-c4ccc(C)cc4)cnc3c12 [167J] |
| > 1000 nM | Cc1ccc(-n2cnc3c(sc4nccc(CN(C)C)c43)c2=O)cc1 [169A] |
| > 1000 nM | Cc1ccc(-n2cnc3c(sc4nccc(CN(CC5CC5)CC5CC5)c43)c2=O)cc1 [169B] |
| < 50 nM | Cc1ccc(-n2cnc3c(sc4nc(O)cc(N(C)C)c43)c2=O)cc1 [172A] |
| < 50 nM | CNc1cc(O)nc2sc3c(=O)n(-c4ccc(C)cc4)cnc3c12 [172B] |

Same assay, conditions: against Quisqualate 1 μM (EC80), class symbols, read-out: mGIuR 1 IC50

| IC50 | SMILES |
| --- | --- |
| < 50 nM | CCNc1ncnc2sc3c(=O)n(-c4ccc(OC(F)F)cc4)cnc3c12 [95W] |
| < 50 nM | CCN(C)c1ncnc2sc3c(=O)n(-c4ccc(C(F)(F)F)cc4)cnc3c12 [95Y] |
| 50 to 150 nM | CN(C)c1cccc2sc3c(=O)n(-c4ccc(Cl)cc4)cnc3c12 [103A] |
| 150 to 1000 nM | CN(C)c1cccc2sc3c(=O)n(C4CCCCC4)cnc3c12 [103B] |
| 150 to 1000 nM | CN(C)c1cccc2sc3c(=O)n(-c4ccccc4)cnc3c12 [103C] |
| 50 to 150 nM | Cc1ccc(-n2cnc3c(sc4cccc(N(C)C)c43)c2=O)cc1 [103D] |
| 50 to 150 nM | COc1ccc(-n2cnc3c(sc4cccc(N(C)C)c43)c2=O)cc1 [103E] |
| 150 to 1000 nM | CN(C)c1cccc2sc3c(=O)n(-c4ccc5scnc5c4)cnc3c12 [103F] |
| < 50 nM | Cc1ccc(-n2c(C)nc3c(sc4nccc(N(C)C)c43)c2=O)cc1 [113A] |
| < 50 nM | Cc1nc2c(sc3nccc(N(C)C)c32)c(=O)n1-c1ccccc1 [113B] |
| 150 to 1000 nM | Cc1nc2c(sc3nccc(NC4CC4)c32)c(=O)n1-c1ccccc1 [113C] |
| < 50 nM | CCN(C)c1ccnc2sc3c(=O)n(-c4ccccc4)c(C)nc3c12 [113D] |
| < 50 nM | CNc1ccnc2sc3c(=O)n(-c4ccccc4)c(C)nc3c12 [113E] |
| < 50 nM | CCNc1ccnc2sc3c(=O)n(-c4ccccc4)c(C)nc3c12 [113F] |
| < 50 nM | CNc1ccnc2sc3c(=O)n(-c4ccc(C)cc4)c(C)nc3c12 [113G] |
| < 50 nM | CCNc1ccnc2sc3c(=O)n(-c4ccc(C)cc4)c(C)nc3c12 [113H] |
| < 50 nM | CCN(C)c1ccnc2sc3c(=O)n(-c4ccc(C)cc4)c(C)nc3c12 [113I] |
| 150 to 1000 nM | Cc1ccc(-n2c(C)nc3c(sc4nccc(NC5CC5)c43)c2=O)cc1 [113J] |
| < 50 nM | C#CCNc1ccnc2sc3c(=O)n(-c4ccc(C)cc4)c(C)nc3c12 [113K] |
| 150 to 1000 nM | Cc1ccc(-n2c(C)nc3c(sc4nccc(NCC(F)(F)F)c43)c2=O)cc1 [113L] |
| 50 to 150 nM | CCCN(C)c1ccnc2sc3c(=O)n(-c4ccc(C)cc4)c(C)nc3c12 [113M] |
| 50 to 150 nM | Cc1ccc(-n2c(C)nc3c(sc4nccc(NCCO)c43)c2=O)cc1 [113N] |
| 50 to 150 nM | CCc1nc2c(sc3nccc(N(C)C)c32)c(=O)n1-c1ccc(C)cc1 [116A] |
| 150 to 1000 nM | CCCc1nc2c(sc3nccc(N(C)C)c32)c(=O)n1-c1ccc(C)cc1 [116B] |
| 150 to 1000 nM | CCCCc1nc2c(sc3nccc(N(C)C)c32)c(=O)n1-c1ccc(C)cc1 [116C] |
| < 50 nM | COc1ccc(-n2c(C)nc3c(sc4nccc(N(C)C)c43)c2=O)cc1 [116D] |

| IC50 | SMILES |
| --- | --- |
| 50 to 150 nM | CCc1nc2c(sc3nccc(N(C)C)c32)c(=O)n1-c1ccc(OC)cc1 [116E] |
| 150 to 1000 nM | CCCc1nc2c(sc3nccc(N(C)C)c32)c(=O)n1-c1ccc(OC)cc1 [116F] |
| 150 to 1000 nM | CCCCc1nc2c(sc3nccc(N(C)C)c32)c(=O)n1-c1ccc(OC)cc1 [116G] |
| 150 to 1000 nM | Cc1ccc(-n2c(C(F)(F)F)nc3c(sc4nccc(N(C)C)c43)c2=O)cc1 [117A] |
| 150 to 1000 nM | COc1ccc(-n2c(C(F)(F)F)nc3c(sc4nccc(N(C)C)c43)c2=O)cc1 [117B] |
| < 50 nM | CCNc1ccnc2sc3c(=O)n(-c4ccc(OC)cc4)cnc3c12 [131A] |
| < 50 nM | CCNc1ccnc2sc3c(=O)n(-c4ccc(O)cc4)cnc3c12 [131B] |
| < 50 nM | CCNc1ccnc2sc3c(=O)n(-c4ccc5ncsc5c4)cnc3c12 [131C] |
| < 50 nM | CCNc1ccnc2sc3c(=O)n(-c4ccc(C)cc4)cnc3c12 [131D] |
| < 50 nM | CCNc1ccnc2sc3c(=O)n(-c4ccc5c(c4)OCO5)cnc3c12 [131E] |
| 50 to 150 nM | CCNc1ccnc2sc3c(=O)n(-c4ccc(CC)cc4)cnc3c12 [131F] |
| < 50 nM | CCNc1ccnc2sc3c(=O)n(-c4ccc(S)c(NC=O)c4)cnc3c12 [131G] |
| 150 to 1000 nM | Cc1ccc(-n2cnc3c4c(N(C)C)ccnc4n(C)c3c2=O)cc1 [134A] |
| 150 to 1000 nM | COc1ccc(-n2cnc3c4c(N(C)C)ccnc4n(C)c3c2=O)cc1 [134B] |
| > 1000 nM | CSc1ccc(-n2cnc3c4c(N(C)C)ccnc4n(C)c3c2=O)cc1 [134C] |
| > 1000 nM | CN(C)c1ccnc2c1c1ncn(-c3ccc(OC(F)F)cc3)c(=O)c1n2C [134D] |
| > 1000 nM | CN(C)c1ccnc2c1c1ncn(-c3ccc4ncsc4c3)c(=O)c1n2C [134E] |
| 150 to 1000 nM | CN(C)c1ccnc2c1c1ncn(-c3ccc(Cl)cc3)c(=O)c1n2C [134F] |
| > 1000 nM | CN(C)c1ccnc2c1c1ncn(C3CCCCC3)c(=O)c1n2C [134G] |
| > 1000 nM | COc1ccc(Cn2c3nccc(N(C)C)c3c3ncn(-c4ccc(C)cc4)c(=O)c32)cc1 [134H] |
| > 1000 nM | CNc1ccnc2c1c1ncn(-c3ccc(C)cc3)c(=O)c1n2Cc1ccc(OC)cc1 [134I] |
| > 1000 nM | Cc1ccc(-n2cnc3c([nH]c4nccc(N(C)C)c43)c2=O)cc1 [135A] |
| < 50 nM | CN(C)c1ccnc2sc3c(=O)n(-c4ccc(C5CC5)cc4)cnc3c12 [137A] |
| < 50 nM | CN(C)c1ccnc2sc3c(=O)n(-c4cccc(C5CC5)c4)cnc3c12 [137B] |
| 50 to 150 nM | CCOC(=O)c1cnc2sc3c(=O)n(-c4ccc(C)cc4)cnc3c2c1 [144A] |
| 150 to 1000 nM | Cc1ccc(-n2cnc3c(sc4ncc(N)cc43)c2=O)cc1 [147A] |
